Measured values reported in patent US10206905B2, “Use of composition for preparing a medicament for treatment of amyotrophic lateral sclerosis” (priority 2015, dated 2019).
Marks after values point to notes of the source that are not given here.

Columns and labels:
SOD1-G93A mice [1] = assay: Passive avoidance test of learning and memory in SOD1-G93A mice (Example 2); type: in vivo; conditions: memory experiment; for Latency period after entering the dark room versus model group: age about 90 d, FIG. 2; for Number of step-through errors versus model group: FIG. 3
Source text: (§1) The transgenic mice (B6SJL-TgN[SOD1-G93A] 1Gur) carrying humanized copper/zinc superoxide dismutase (SOD1) (G93A mutants)and wild-type B6SJL F1 mice are purchased from Nanjing University. The breed conversation and propagation methods of the mice: one wild-type female mouse and one transgenic male mouse were allowed to mate with each other, with their progeny identified through polymerase chain reaction (PCR) with DNA extracted from the tail of young mice.
(§2) Calculated based on the effective doses of edaravone (SOD1-G93Amouse 15 mg/kg, SOD1-H46R rat 3-6 mg/kg) and those on cerebral ischemic animal models (SD rat 6 mg/kg) according to the literature, the dosage of edaravone was set at 12 mg/kg, then the dosage of the composition of edaravone and borneol was set at 15 mg/kg (the dosage of edaravone was set at 12 mg/kg, borneol was 3 mg/kg), and borneol was set at 3 mg/kg.
(§3) SOD1 genetic mutant mice at the age of 70 d were divided randomly into 4 groups according to their motor functions. Respectively: the SOD1 genetic mutation control group; the treating group of the composition of edaravone and borneol at 15 mg/kg; the treating group of edaravone at 12 mg/kg; the treating group of borneol at 3 mg/kg; another B6SJL healthy mice control group without SOD1 genetic mutation was additionally set. There was 14 mice each group, half of males and half of females.
From the day of grouping, animals in each group were dosed by intraperitoneal injection once a day, until the behavior test has been completed. Animals in the healthy control group and the SOD1 genetic mutation control group were given saline of equal volumes.
The passive avoidance test was performed when the animals were at the age of about 90 d to determine their abilities of learning and memory. The experimental device was divided into two rooms, bright and dark. […] The mice were placed into the bright room with face back to the hole in the test, the timer was initiated at the same time, and the animals entered the dark room through passing the hole, subjecting to the electric shock (0.19 mA), the recorded time was the latency period, meanwhile recording the number of step-through errors in 5 min after the mice got into the dark room. The memory experiment was carried out on the third day, the time from placing each mouse into the bright room to entering the dark room was recorded, if the mouse didn't enter the dark room in 5 min, then the latency period was recorded as 300s, meanwhile recording the number of step-through errors in 5 min after the mice got into the dark room.
It was assessed whether there was a synergistic effect between edaravone and borneol in the composition according to the Jong-eun's formula, q=E(a+b)/(Ea+Eb−Ea×Eb). […]

SOD1-G93A mice [2] = assay: Rota-rod motor function of SOD1-G93A mice (Example 1); type: in vivo; conditions: p<0.05, FIG. 1
Method: According to the methods reported in literatures, mice were placed on the Rota-rod (60 Hz/min, Φ190 mm), and the time from being placed on the Rota-rod to dropping was recorded. Each mouse was determined for 3 times at each time point, with the longest time of mouse keeping on the rotating rod reflecting the motor function of the mouse, the determination was stopped if the time was over 180s, calculated as 180s. The motor functions of the mice with SOD1 mutant gene were determined beginning at the age of 60 d. Thereafter, they were observed and determined every 10 days, until death.
as §2, with “(SOD1-G93Amousel5” for “(SOD1-G93Amouse 15”, “3-6mg/kg)” for “3-6 mg/kg)”
SOD1 genetic mutant mice at the age of 70 d were divided randomly into 4 groups according to their motor functions. […]

SOD1-G93A mice [3] = assay: Onset time and survival time of SOD1-G93A mice (Example 1); type: in vivo; conditions: for Survival Time Extension: i.p. once a day from age 70 d, versus SOD1-G93A control; for Onset Time / Survival Time: i.p. once a day from age 70 d until death
Source text: as §1, with “mutants) and” for “mutants)and”, “are” for “were”
5 B6SJL-TgN(SOD1-G93A)1Gur male mice were allowed to mate with B6SJLF1 female healthy mice in a ratio of 1 male to 3 females beginning at the age of 60 d. DNA was extracted from the progeny mice tail-cutting (as required in the kits), plus SOD1 primers 5′ -[…]-3 ′ and 5 ′ -[…] AAGTGA-3 ′ were amplified through 30 PCR cycles, confirming SOD1 gene strips between 200˜300bp. Mice without SOD1 mutant gene were eliminated.
as §2, with “(SOD1-G93Amousel5” for “(SOD1-G93Amouse 15”, “3-6mg/kg)” for “3-6 mg/kg)”
as §3, with “without SOD lgenetic” for “without SOD1 genetic”
From the day of grouping, animals in each group were dosed by intraperitoneal injection once a day, until death. Animals in the healthy control group and the SOD1 genetic mutation control group were given saline of equal volumes.
It was determined as muscle strength decline when the time of the mice keeping on the rotarod decreased by over 30% compared with the former time determined. The onset time of the mice was determined according to the variation of this motor function and the observation of the anterior limbs of the mice with or without tremor. When the mice have lain on their backs on smooth planes for 30 s and cannot righting reflex, or there was serious infection in one or both eyes, then the mice may be judged as death and sacrificed. The time from birth to death of a mouse was the survival time of the mouse.
It was assessed whether there was a synergistic effect between edaravone and borneol in the composition according to the Jong-eun's formula, q=E(a+b)/(Ea+Eb−Ea×Eb). In the formula, E(a+b) is the effective rate of the combined drugs, Ea, Eb is the effective rate of A drug, B drug used alone, respectively. If q value was in the range of 0.85˜1.15, indicating the sum of the combined two drugs; q value >1.15 indicating enhancement, and q value <0.85 indicating there was an antagonistic effect when two drugs were used together.

[4] = system: cerebral ischemic animal models; conditions: SD rat, according to the literature; cited from earlier work
SOD1-H46R rat = conditions: according to the literature; cited from earlier work
[5] = system: amyotrophic lateral sclerosis; conditions: clinical phase-III study NCT00330681; primary endpoint not reached; cited from earlier work
SOD1-G93A mice [6] = assay: Motor function scores of SOD1-G93A mice (Example 3); type: in vivo; conditions: p<0.05, FIG. 5
SOD1-G93A mice [7] = assay: Rotarod test drop time of SOD1-G93A mice (Example 3); type: in vivo; conditions: p<0.05, FIG. 6
SOD1-G93A mice [8] = assay: Onset time and survival time of SOD1-G93A mice (Example 3); type: in vivo
Method: The transgenic mice with amyotrophic lateral sclerosis (B 6 SJL-Tg(SOD1*G93A)1Gur/JNj u, hereinafter referred to as SOD1-G93 A mice) and the wild-type control mice were purchased from Nanjing Biomedical Research Institute of Nanjing University.
Dosing to animals was initiated from the age of 10 weeks, keeping on the whole survival period. Each dosage of the composition and the positive drug edaravone group was dosed by intraperitoneal injection once a day. […] Animals in the wild control group and the model group were given the corresponding volumes of solvents by intraperitoneal injection.
From the age of 10 weeks, the body weight, the motor function (motor ability score, rotarod test) of animals had been monitored once a week. Two consecutive rod droppings in the animal rotarod test had been considered as the sign of the onset of animal diseases. It was defined as the end of a disease to euthanasia when the animal cannot get righting in 30 seconds after being laid on one side.
The body weight, the motor ability score, the variation of the rod drop latency period with the time in the rotarod test, the onset time, and the survival time were considered as the indexes of observing the disease progress.

mutant SOD1 G93A mice = conditions: cited from earlier work
SOD1-G93A mice [9] = assay: Body weight of SOD1-G93A mice (Example 3); type: in vivo; conditions: 100 μg/ml in drinking water; age 21 weeks; p<0.05; FIG. 4
[10] = 15 mg/kg/d i.p. once a day from age 10 weeks, mean ± standard error
[11] = 100 μg/ml in drinking water, age 16-21 weeks

SMILES: CC1(C)C2CCC1(C)C(O)C2 (stereo not shown) [Borneol, 2-camphol]
- Latency period after entering the dark room versus model group (SOD1-G93A mice [1]; 3 mg/kg/d i.p. from 70 d): not obvious
- Number of step-through errors versus model group (SOD1-G93A mice [1]; 3 mg/kg/d i.p.): not obvious
- Rotarod time versus model group (SOD1-G93A mice [2]; 3 mg/kg/d i.p., only at age 130 d): different significantly from the model group
- Effect on the survival time versus model group (SOD1-G93A mice [3]; 3 mg/kg/d i.p. from age 70 d): no statistical difference compared with the model group
- Survival Time Extension (SOD1-G93A mice [3]; 3 mg/kg/d): 2.9 days
- Onset Time (SOD1-G93A mice [3]; 3 mg/kg/d): 113.1 ± 2.5 days
- Survival Time (SOD1-G93A mice [3]; 3 mg/kg/d): 141.3 ± 3.6 days
- Survival Time (SOD1-G93A mice [3]; 3 mg/kg/d, listed as borneol): 141.3 ± 3.6 days

SMILES: CC1=NN(c2ccccc2)C(=O)C1 [Edaravone, 3-methyl-1-phenyl-2-pyrazolin-5-one]
- Effective dose [4]: 6 mg/kg
- Latency period after entering the dark room versus model group (SOD1-G93A mice [1]; 12 mg/kg/d i.p. from 70 d, p<0.05): extended significantly
- Number of step-through errors versus model group (SOD1-G93A mice [1]; 12 mg/kg/d i.p., p<0.05): decreased significantly
- Effective dose (SOD1-H46R rat): 3 to 6 mg/kg
- ALSFRS-R score versus placebo group [5]: decreased less than the placebo group, there was no significant difference
- Motor function scores versus model group (SOD1-G93A mice [6]; 15 mg/kg/d i.p., age 17, 20, 21 weeks): significantly higher than in the model group
- Drop time in the rotarod test versus model group (SOD1-G93A mice [7]; 15 mg/kg/d i.p., age 16, 19, 20, 21 weeks): markedly longer than in the model group
- Rotarod time (muscle strength, motor function) versus model control group (SOD1-G93A mice [2]; 12 mg/kg/d i.p., age 110, 120, 130 d): significantly slow the decline of the muscle strength
- Effect on the survival time versus model group (SOD1-G93A mice [3]; 12 mg/kg/d i.p. from age 70 d): extending the survival time of the mice significantly
- Influence on the onset time of the mice (SOD1-G93A mice [3]; 12 mg/kg/d i.p. from age 70 d): no influence on the onset time
- Survival Time Extension (SOD1-G93A mice [3]; 12 mg/kg/d): 6.2 days
- Onset Time (SOD1-G93A mice [3]; 12 mg/kg/d): 113.7 ± 2.6 days
- Survival Time (SOD1-G93A mice [3]; 12 mg/kg/d): 144.6 ± 3.7 days
- Survival Time (SOD1-G93A mice [3]; 12 mg/kg/d, listed as edaravone): 144.6 ± 3.7 days
- Onset Time (SOD1-G93A mice [8]; [10]): 111.3 ± 10.0 days
- Survival Time (SOD1-G93A mice [8]; [10]): 151.7 ± 9.7* d
- Survival Time Extension (SOD1-G93A mice [8]; 15 mg/kg/d i.p., versus SOD1-G93A control): 9.4 days
- Progression of the symptoms and degeneration of neuron (mutant SOD1 G93A mice; Exp Neurol. 2008, 213(2):448-55): capable of slowing the progression of the symptoms
- Effective dose (mutant SOD1 G93A mice; SOD1-G93A mouse, according to the literature): 15 mg/kg

SMILES: Nc1nc2ccc(OC(F)(F)F)cc2s1 [Riluzole]
- Motor function scores versus model group (SOD1-G93A mice [6]; [11]): significantly higher than in the model group
- Drop time in the rotarod test versus model group (SOD1-G93A mice [7]; [11]): longer than in the model group markedly
- Weight of animals versus model control group (SOD1-G93A mice [9]): significantly higher than in the model control group
- Onset Time (SOD1-G93A mice [8]; 100 μg/ml in drinking water from age 10 weeks, mean ± standard error): 109.2 ± 9.4 days
